PubChem BioAssay (NCI)
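All cell lines were grown in 96-well plates and treated with compound for 48 hours. Here, GI50 denotes the concentration required for 50% inhibition of growth. TGI is the concentration that stops growth completely.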

Assays:
Test in all cases: DTP human tumour cell line panel, 48 h
[1] = test system: 786-0 renal
[2] = test system: A498 renal
[3] = test system: A549 NSCLC
[4] = test system: ACHN renal
[5] = test system: BT-549 breast
[6] = test system: CAKI-1 renal
[7] = test system: CCRF-CEM leukemia
[8] = test system: COLO 205 colon
[9] = test system: DU-145 prostate
[10] = test system: EKVX NSCLC
[11] = test system: HCC-2998 colon
[12] = test system: HCT-116 colon
[13] = test system: HCT-15 colon
[14] = test system: HL-60(TB) leukemia
[15] = test system: HOP-62 NSCLC
[16] = test system: HOP-92 NSCLC
[17] = test system: HS 578T breast
[18] = test system: HT29 colon
[19] = test system: IGROV1 ovarian
[20] = test system: K-562 leukemia
[21] = test system: KM12 colon
[22] = test system: LOX IMVI melanoma
[23] = test system: M14 melanoma
[24] = test system: MALME-3M melanoma
[25] = test system: MCF7 breast
[26] = test system: MDA-MB-435
[27] = test system: MDA-MB-468 breast
[28] = test system: MOLT-4 leukemia
[29] = test system: NCI-H226 lung
[30] = test system: NCI-H23 lung
[31] = test system: NCI-H460 lung
[32] = test system: NCI-H522 lung
[33] = test system: NCI/ADR-RES ovarian
[34] = test system: OVCAR-3 ovarian
[35] = test system: OVCAR-4 ovarian
[36] = test system: OVCAR-5 ovarian
[37] = test system: OVCAR-8 ovarian
[38] = test system: PC-3 prostate
[39] = test system: RPMI-8226 leukemia
[40] = test system: RXF 393 renal
[41] = test system: SF-268 CNS
[42] = test system: SF-295 CNS
[43] = test system: SF-539 CNS
[44] = test system: SK-MEL-28 melanoma
[45] = test system: SK-MEL-5 melanoma
[46] = test system: SK-OV-3 ovarian
[47] = test system: SN12C renal
[48] = test system: SNB-19 CNS
[49] = test system: SR leukemia
[50] = test system: SW-620 colon
[51] = test system: T-47D breast
[52] = test system: TK-10 renal
[53] = test system: U251 CNS
[54] = test system: UACC-257 melanoma
[55] = test system: UACC-62 melanoma

Cc1[nH]nc2ccc3nc(-c4cn[nH]c4C(F)(F)F)c4c(c3c12)CCCC4
GI50 [1]: 2.95 µM | TGI [1]: 12.5 µM | GI50 [2]: 2.32 µM | TGI [2]: 6.77 µM | GI50 [3]: 3.54 µM | TGI [3]: 13 µM | GI50 [4]: 2.26 µM | TGI [4]: 11.6 µM | GI50 [5]: 2.1 µM | TGI [5]: 5.19 µM | GI50 [6]: 3.3 µM | TGI [6]: 11.8 µM | GI50 [7]: 3.49 µM | TGI [7]: 19.1 µM | GI50 [8]: 3.24 µM | TGI [8]: 10.9 µM | GI50 [9]: 3.99 µM | TGI [9]: 18.5 µM | GI50 [10]: 2.84 µM | TGI [10]: 9.62 µM | GI50 [11]: 3.52 µM | TGI [11]: 12.6 µM | GI50 [12]: 2.58 µM | TGI [12]: 10.3 µM | GI50 [13]: 2.75 µM | TGI [13]: 9.34 µM | GI50 [14]: 2.72 µM | TGI [14]: 6.92 µM | GI50 [15]: 3.53 µM | TGI [15]: 12.5 µM | GI50 [16]: 2.86 µM | TGI [16]: 8.51 µM | GI50 [17]: 2.14 µM | TGI [17]: 5.19 µM | GI50 [18]: 3.9 µM | TGI [18]: 12.7 µM | GI50 [19]: 2.61 µM | TGI [19]: 7.43 µM | GI50 [20]: 3.5 µM | TGI [20]: 19.9 µM | GI50 [21]: 2.82 µM | TGI [21]: 13.3 µM | GI50 [22]: 3.55 µM | TGI [22]: 13.1 µM | GI50 [23]: 2.77 µM | TGI [23]: 10.9 µM | GI50 [24]: 4.04 µM | TGI [24]: 13.6 µM | GI50 [25]: 4.03 µM | TGI [25]: 16.8 µM | GI50 [26]: 3.01 µM | TGI [26]: 11.2 µM | GI50 [27]: 2.46 µM | TGI [27]: 8.78 µM | GI50 [28]: 2.16 µM | TGI [28]: 5.89 µM | GI50 [29]: 5.15 µM | TGI [29]: 43.7 µM | GI50 [30]: 2.95 µM | TGI [30]: 11 µM | GI50 [31]: 3 µM | TGI [31]: 13.1 µM | GI50 [32]: 1.44 µM | TGI [32]: 5.06 µM | GI50 [33]: 11.7 µM | TGI [33]: 30.1 µM | GI50 [34]: 4.15 µM | TGI [34]: 14.6 µM | GI50 [35]: 8.96 µM | TGI [35]: 21.2 µM | GI50 [36]: 3.15 µM | TGI [36]: 13.7 µM | GI50 [37]: 4.44 µM | TGI [37]: 18.7 µM | GI50 [38]: 3.94 µM | TGI [38]: 17.1 µM | GI50 [39]: 2.49 µM | TGI [39]: 30.3 µM | GI50 [40]: 1.37 µM | TGI [40]: 4.39 µM | GI50 [41]: 2.99 µM | TGI [41]: 13.5 µM | GI50 [42]: 3.34 µM | TGI [42]: 14 µM | GI50 [43]: 2.03 µM | TGI [43]: 6.54 µM | GI50 [44]: 3.79 µM | TGI [44]: 14.2 µM | GI50 [45]: 2.94 µM | TGI [45]: 9.26 µM | GI50 [46]: 1.78 µM | TGI [46]: 5.31 µM | GI50 [47]: 3.31 µM | TGI [47]: 13.3 µM | GI50 [48]: 5.14 µM | TGI [48]: 17.9 µM | GI50 [49]: 1.56 µM | TGI [49]: 4.13 µM | GI50 [50]: 2.48 µM | TGI [50]: 11.3 µM | GI50 [51]: 2.4 µM | TGI [51]: 12.1 µM | GI50 [52]: 2.29 µM | TGI [52]: 11.7 µM | GI50 [53]: 4.41 µM | TGI [53]: 17.6 µM | GI50 [54]: 8.47 µM | TGI [54]: 22 µM | GI50 [55]: 2.09 µM | TGI [55]: 6.64 µM
